In patent US20200338044A1 (PCI Biotech AS, priority 2016, published 2020):
Entries after “also recorded” stand apart in the source; their conditions may differ.

Assays:
TFK-1 cells = assay: Colony formation assay after PCI treatment; type: cell-based, human
Experimental: Cells (25 000 cells/well) were seeded out in 6 well plates (Nunc) and allowed to adhere overnight and subjected to photochemical treatment described above. The cells were placed in the incubator and the culture medium was replaced with fresh culture medium after 3 days incubation. […] Subsequently, cells were washed in H2O and then dried before being evaluated by visual inspection.

EGI-1 cell line [1] = system: EGI-1 cell line
Experimental: (§1) Di (monoethanolammonium) meso-tetraphenyl chlorin disulfonate (TPCS2a/Amphinex®) was provided by PCI Biotech AS (Lysaker, Norway). Amphinex batch number: FAMP 1002. TPCS2a (in 3% polysorbate 80, 2.8% mannitol, 50 mM Tris pH 8.5) stock solution (0.4 mg/ml) was kept at 4° C. in aliquots and light protected. All work with the photosensitizer was performed under subdued light.
(§2) Illumination of the cells was performed by using Lumisource (PCI Biotech, Oslo). This lamp consists of four standard light tubes (18 W/tube, Osram L 18/67), which emit blue light with a main peak at approximately 435 nm and was used for excitation of TPCS2a. The irradiance emitted from the blue light source was 12 mW/cm^2 and varied less than 10% across the illumination area (765 cm^2). The light source was air-cooled during light exposure to keep the irradiance stable and prevent cells from hyperthermia.
(§3) Cells were seeded in 96-well or 6-well plates (Nunclon, Nunc, Roskilde, Denmark) and allowed to attach at 37° C. overnight. […]
(§4) The MTT method (tetrazolium dye reduction) was performed 48 h after light exposure with Lumisource. […] The 96 well plates were set on a shaker for 5 minutes before absorbance was measured at 570 nm with a power wave XS2 (Biotek, VT, USA). […]

TFK-1 cell line [2] = assay: Cytotoxicity of gemcitabine without PCI, MTT assay; type: cell-based, human
From the text: The cell lines used were TFK-1 and EGI-1, both were obtained from the Department of Cancer Prevention, The Norwegian Radium Hospital, Oslo, Norway. TFK-1 is a human papillary bile duct adenocarcinoma cell line and EGI-1 is a poorly differentiated human bile duct adenocarcinoma cell line. Both cell lines originate from extrahepatic tumours (Saijyo et al., 1995, Tohoku J. Exp. Med., 177:61-71; EGI-1—Cell LINCS Library of Intergrated network-based Cellular Signatures. Available from the website having the URL beginning with “lincs” and ending with “.hms.harvard.edu/db/cells/50181/”), but are quite different both morphologically and physiologically (Xu et al., 2013, Clinical Cancer Research, January 1; 19(1):118-27; Pignochino et al., 2010, BMC Cancer, 10:631).
The MTT method (tetrazolium dye reduction) was performed 48 h after light exposure with Lumisource. The culture medium was removed and cells were incubated in medium containing 0.25 mg/ml MTT (Sigma) for approximately 3 hours before replacement with 100 μl of 99% dimethylsulfoxide (Sigma). The 96 well plates were set on a shaker for 5 minutes before absorbance was measured at 570 nm with a power wave XS2 (Biotek, VT, USA). Wells without cells incubated with MTT-medium only were used for blank subtraction.

EGI-1 cell line [3] = assay: Cytotoxicity of gemcitabine without PCI, MTT assay; type: cell-based, human
From the text: The cell lines used were TFK-1 and EGI-1, both were obtained from the Department of Cancer Prevention, The Norwegian Radium Hospital, Oslo, Norway. TFK-1 is a human papillary bile duct adenocarcinoma cell line and EGI-1 is a poorly differentiated human bile duct adenocarcinoma cell line. Both cell lines originate from extrahepatic tumours (Saijyo et al., 1995, Tohoku J. Exp. Med., 177:61-71; EGI-1-Cell LINCS Library of Intergrated network-based Cellular Signatures. Available from the website having the URL beginning with “[…] ending with “.hms.harvard.edu/db/cells/50181/”), but are quite different both morphologically and physiologically (Xu et al., 2013, Clinical Cancer Research, January 1; 19(1):118-27; Pignochino et al., 2010, BMC Cancer, 10:631).

[4] = system: NCI-H460 human lung cancer tumour cells; assay: Tumour growth of subcutaneous NCI-H460 xenografts after PCI with gemcitabine; type: in vivo, Nude (nu/nu) athymic mice; settings: for No. of animals alive at the end of study: 10 animals at start
Experimental: Nude (nu/nu) athymic mice (female, CD-1 nu/nu strain, at least 6 weeks old) were used which have been used extensively to generate human tumour xenografts and remain the experimental method of choice for testing anti-tumour efficacy of new compounds prior to administration in man. The route of administration of the test substances was intravenous. The dose of Amphinex® was 5 mg/kg, based on earlier mouse studies performed by PCI Biotech AS and collaborators.
There were 6 treatment groups with 10 mice per group. Mice were injected subcutaneously with 7×10^7 cells/mL NCI-H460 tumour cells to allow selection of optimal tumours for inclusion in the study. Tumours of the appropriate size were allocated to the various treatment groups.
Amphinex® was administered intravenously via a tail vein, using a dose volume of 4 mL/kg.
Human NCI-H460 non-small cell lung cancer cells (American Type Culture Collection [ATCC], Maryland, USA, or the European Collection of Cell Cultures [ECACC], Porton Down, UK) were harvested from sub-confluent cultures growing in vitro and the number of viable cells determined. Cells were then re-suspended in sterile phosphate buffered saline (PBS) at a concentration of approximately 7×10^7 cells/mL. Nude (nu/nu) athymic mice were injected subcutaneously in the right flank with approximately 7×10^6 NCI-H460 cells in a volume of 0.1 mL. Animals were examined regularly for the appearance of tumours. When measurable tumours had established in the majority of mice, animals were assigned into 6 treatment groups with a target of up to 10 mice per group. Mice received an intravenous injection of Amphinex when the tumours had reached a size such that the tumour volume was approximately in the range 100 to 150 mm^3 72 hours later.
For tumour illumination each animal was restrained, one at a time, in a metal restraint which allows only the lower flank area, i.e. tumour area plus a 2 mm diameter surrounding area, to be exposed. A 650 nm diode laser (TWI Diode Laser, Quanta System, Italy) was then used to expose the tumour tissue to a light dose of 15 J/cm^2, with a fluence rate of 90 mW/cm^2. Each animal had their tumour exposed to the laser for approximately 167 s, to give the required dose of 15 J/cm^2.
Tumour size was measured at least twice weekly using digital callipers for up to 4 weeks following illumination or until the tumour size (as specified in the UK Home Office Licence) or other clinical signs necessitated removal of that mouse from the study. Tumour dimensions were recorded (length and width), and tumour volumes calculated using the formula (W^2×L)/2, where W is the […] tumour dimension and L is the longest. Animals were terminated if the tumour size had become excessive or any adverse effects were noted.
The tumour dimensions measured over the period of the study—length (L, long) and width (W, short) in mm, were recorded and kept as raw data. The mean tumour volumes on the first day of treatment were reported for each group. Calculations of relative tumour volumes and plots of mean tumour growth curves were performed. Body weight data were also obtained.

TFK-1 cell line [5] = assay: PCI with gemcitabine, MTT cytotoxicity assay; type: cell-based, human
Experimental: as §1, §2, §3, §4

[6] = gemcitabine 100 nM alone, no PCI
[7] = 4 hours exposure, up to 1 mM tested, data not shown

Nc1ccn([C@@H]2O[C@H](CO)[C@@H](O)C2(F)F)c(=O)n1 [Gemcitabine, 4-amino-1-(2-deoxy-2,2-difluoro-β-D-erythro-pentofuranosyl)pyrimidin-2(1H)-on]
colony forming ability (TFK-1 cells; gemcitabine 10 nM, PCI illumination time 140 s): substantial colony formation was observed
colony forming ability (TFK-1 cells; gemcitabine 33 nM): some colony formation could be observed
colony forming ability (TFK-1 cells; gemcitabine 100 nM): unable to form colonies
colony forming ability (TFK-1 cells; gemcitabine 330 nM): unable to form colonies
effect on cell survival (EGI-1 cell line [1]; [6]): no effect on cell survival
cytotoxic effect (TFK-1 cell line [2]; [7]): only a very modest cytotoxic effect
cytotoxicity (TFK-1 cell line [2]; 72 hours exposure, 3 μM gemcitabine): about 50%
cell killing (>90% level) (EGI-1 cell line [3]; 3 000 nM gemcitabine without PCI, 72 hours): this level of cell killing was not obtained
cytotoxic effect (EGI-1 cell line [3]; [7]): only a very modest cytotoxic effect
sensitivity to gemcitabine (cytotoxicity) (EGI-1 cell line [3]; 72 hours exposure, highest dose employed (up to 3 μM)): insensitive
effect on tumour growth ([4]; gemcitabine 200 mg/kg i.v., PCI: Amphinex 5 mg/kg i.v. + 650 nm 15 J/cm^2): no
effect on tumour growth ([4]; gemcitabine 200 mg/kg i.v., PCI: Amphinex 5 mg/kg i.v. + 650 nm 15 J/cm^2, listed as gemcitabine): neither the photochemical treatment alone (PCI alone) nor gemcitabine alone had a significant effect on tumour growth
No. of animals alive at the end of study ([4]; gemcitabine 200 mg/kg): 5
effect on tumour growth ([4]; gemcitabine 400 mg/kg i.v., PCI: Amphinex 5 mg/kg i.v. + 650 nm 15 J/cm^2): only a very modest; also recorded: neither the photochemical treatment alone (PCI alone) nor gemcitabine alone (Gemcitabine 400 mg/kg) had a significant effect on tumour growth
No. of animals alive at the end of study ([4]; gemcitabine 400 mg/kg): 6
cytotoxic effect (TFK-1 cell line [5]; [6]): about 50%

Di (monoethanolammonium) meso-tetraphenyl chlorin disulfonate [PCI alone]
colony forming ability (TFK-1 cells; PCI alone, illumination time 140 s): still had the ability to form colonies
cells killed (EGI-1 cell line [1]; photochemical treatment alone, highest light dose): about 50%
No. of animals alive at the end of study ([4]; Amphinex 5 mg/kg + laser, no gemcitabine): 2
effect on tumour growth ([4]; Amphinex 5 mg/kg i.v. + laser 15 J/cm^2, without gemcitabine): virtually no effect; also recorded: neither the photochemical treatment alone (PCI alone) nor gemcitabine alone (Gemcitabine 400 mg/kg) had a significant effect on tumour growth
effect on cell survival (TFK-1 cell line [5]; photochemical treatment alone, 0.4 μg/ml TPCS2a + blue light): only a modest effect on cell survival
